MIC data for 1 compound are collected here from patent US9856225B2, “Substituted phenazines as antimicrobial agents” (University of Florida Research Foundation, Incorporated, priority 2013, dated 2018).

The subject of the assay is Staphylococcus aureus (ATCC 25923). Briefly: MIC broth microdilution (CLSI), Luria Broth. The assay is classed as cell-based. The settings on record: Staphylococcus aureus, ATCC25923, Table 1, ATCC 25923, read-out: Staphylococcus aureus MIC. The protocol: Antibiotic Susceptibility Tests (MIC Assay Protocol). The minimum inhibitory concentration (MIC) for each compound described herein was determined by the broth microdilution method as recommended by the Clinical and Laboratory Standards Institute (CLSI) (Clinical and Laboratory Standards Institute. 2009. Methods for dilution antimicrobial susceptibility tests for bacteria that grow aerobically; approved standard, eighth edition (M7-A8)). In a 96-well plate, eleven two-fold serial dilutions of each compound were made in a final volume of 100 μL Luria Broth (one column served as a blank; see the MIC assay described herein). Each well was inoculated with 10^5 bacterial cells at the initial time of incubation, prepared from a fresh log phase culture (OD600 of 0.5). […] The concentration range tested for each compound during this study was 0.10 to 100 μM. DMSO served as the vehicle and negative control in each microdilution MIC assay. DMSO was serially diluted at the same concentration as the compounds with a top concentration of 1% v/v. Bacterial strains used: Staphylococcus aureus (ATCC 25923), Staphylococcus epidermidis (ATCC 12228) and Pseudomonas aeruginosa (PAO1). Kanamycin was used as a positive control against Staphylococcus aureus and Staphylococcus epidermidis.
(Dilution methods test growth across graded concentrations, often in twofold steps.)

Like-named read-outs stand apart in the source and are kept apart here.

For orientation: MIC means the smallest concentration in the dilution series that meets the test's criterion for growth inhibition. `COc1c(Br)cc(Br)c2nc3ccccc3nc12` [Compound 27, 2,4-Dibromo-1-methoxyphenazine]: the MIC was > 36.9 mg/L. The MIC (range tested 0.10 to 100 μM) is > 100 µM.
